Holding throughout (assay): Generic kinase assay (33P-ATP, Myelin Basic Protein)
What all share (format): biochemical

The target of assay [1] is T1, RIP (Homo sapiens, UniProt Q13546).
T1 sequence (Q13546 1-671): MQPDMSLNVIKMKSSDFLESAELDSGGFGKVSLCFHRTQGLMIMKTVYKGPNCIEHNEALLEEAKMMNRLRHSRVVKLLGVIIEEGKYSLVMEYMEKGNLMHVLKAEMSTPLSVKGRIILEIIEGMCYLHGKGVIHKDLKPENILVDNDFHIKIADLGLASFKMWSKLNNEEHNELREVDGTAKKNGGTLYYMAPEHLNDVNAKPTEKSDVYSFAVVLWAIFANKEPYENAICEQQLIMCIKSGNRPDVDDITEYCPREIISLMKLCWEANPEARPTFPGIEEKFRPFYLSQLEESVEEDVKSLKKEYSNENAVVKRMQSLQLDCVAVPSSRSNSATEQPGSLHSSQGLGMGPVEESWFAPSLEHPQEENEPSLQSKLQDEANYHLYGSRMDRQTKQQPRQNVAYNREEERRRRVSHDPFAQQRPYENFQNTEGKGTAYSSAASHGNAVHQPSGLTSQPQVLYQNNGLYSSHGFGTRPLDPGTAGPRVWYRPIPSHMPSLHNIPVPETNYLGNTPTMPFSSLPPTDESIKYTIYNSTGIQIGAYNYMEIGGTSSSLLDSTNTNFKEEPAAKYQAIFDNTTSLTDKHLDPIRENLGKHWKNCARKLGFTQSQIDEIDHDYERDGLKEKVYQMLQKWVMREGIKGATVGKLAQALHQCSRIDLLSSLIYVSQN
The following applies: class symbol: % inhibition at 10 μM or IC50. Summed up:
(§1)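 Radiometric assay using myelin basic protein substrate and ATP spiked with [γ-33P]ATP in Tris-HCl pH 7.5/MgCl2/DTT buffer, with 40 μM MBP and 4 μM ATP in the 3× stock. Kinase was added to give about 10% ATP turnover, reacted 1 h at room temperature, and stopped with EDTA. Incorporated 33P was captured on phosphocellulose filters with H3PO4 washes and counted by scintillation.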

Assay [2] concerns the target RICK (Homo sapiens, UniProt O43353). As to conditions: class symbol: % inhibition at 10 μM or IC50. Put shortly: as §1
Assay [3] has as its system PDGFR. The following applies: class symbol: % inhibition at 10 μM or IC50. Put shortly:
as §1

Assay [4] addresses p56Lck (Homo sapiens, UniProt P06239). As to conditions: 1 h; class symbol: % inhibition at 10 μM or IC50; read-out: Inhibitory effect on target p56Lck. Put shortly: as §1
Assay [5] addresses EGFR (Homo sapiens, UniProt P00533). As to conditions: class symbol: % inhibition at 10 μM or IC50. Put shortly:
as §1

In assay [6] the target is ROCK 2 (Homo sapiens, UniProt O75116). As to conditions: class symbol: % inhibition at 10 μM or IC50. Summed up: as §1
For assay [7], the target named is Abl (Homo sapiens, UniProt P00519). The following applies: 1 h; class symbol: % inhibition at 10 μM or IC50; read-out: Inhibitory effect on target Abl. Summed up:
as §1

The target in assay [8] is GSK-3beta (Homo sapiens, UniProt P49841). The following applies: class symbol: % inhibition at 10 μM or IC50. Summed up: as §1
Assay [9] addresses cRaf (Homo sapiens, UniProt P04049). The following applies: 1 h; class symbol: % inhibition at 10 μM or IC50; read-out: Inhibitory effect on target cRaf. Summed up: as §1
Assay [10] addresses c-kit (Homo sapiens, UniProt P10721). The following applies: 1 h; class symbol: % inhibition at 10 μM or IC50; read-out: Inhibitory effect on target c-kit. Summed up:
as §1

In assay [11] the target is CDK2/CyclinA (Homo sapiens, UniProt P24941). As to conditions: class symbol: % inhibition at 10 μM or IC50. Put shortly:
as §1

The target in assay [12] is p38 (Homo sapiens, UniProt Q16539). The following applies: class symbol: % inhibition at 10 μM or IC50. Summed up:
as §1

Chain of RICK (O43353 whole entry, species assumed): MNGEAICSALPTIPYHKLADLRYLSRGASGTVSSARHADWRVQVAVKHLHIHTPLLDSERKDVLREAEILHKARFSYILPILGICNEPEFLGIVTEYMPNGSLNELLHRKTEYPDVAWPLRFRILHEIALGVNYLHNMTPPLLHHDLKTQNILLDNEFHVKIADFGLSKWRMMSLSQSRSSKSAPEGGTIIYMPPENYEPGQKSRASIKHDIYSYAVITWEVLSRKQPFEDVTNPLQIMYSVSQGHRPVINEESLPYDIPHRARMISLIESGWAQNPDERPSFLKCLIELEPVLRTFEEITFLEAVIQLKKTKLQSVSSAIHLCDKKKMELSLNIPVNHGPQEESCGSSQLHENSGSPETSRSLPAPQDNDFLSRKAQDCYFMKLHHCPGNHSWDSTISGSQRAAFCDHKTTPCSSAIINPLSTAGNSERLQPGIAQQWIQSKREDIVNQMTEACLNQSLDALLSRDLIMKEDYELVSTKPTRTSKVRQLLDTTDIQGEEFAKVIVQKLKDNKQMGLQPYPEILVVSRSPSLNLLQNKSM
Chain of p56Lck (P06239 whole entry, species assumed): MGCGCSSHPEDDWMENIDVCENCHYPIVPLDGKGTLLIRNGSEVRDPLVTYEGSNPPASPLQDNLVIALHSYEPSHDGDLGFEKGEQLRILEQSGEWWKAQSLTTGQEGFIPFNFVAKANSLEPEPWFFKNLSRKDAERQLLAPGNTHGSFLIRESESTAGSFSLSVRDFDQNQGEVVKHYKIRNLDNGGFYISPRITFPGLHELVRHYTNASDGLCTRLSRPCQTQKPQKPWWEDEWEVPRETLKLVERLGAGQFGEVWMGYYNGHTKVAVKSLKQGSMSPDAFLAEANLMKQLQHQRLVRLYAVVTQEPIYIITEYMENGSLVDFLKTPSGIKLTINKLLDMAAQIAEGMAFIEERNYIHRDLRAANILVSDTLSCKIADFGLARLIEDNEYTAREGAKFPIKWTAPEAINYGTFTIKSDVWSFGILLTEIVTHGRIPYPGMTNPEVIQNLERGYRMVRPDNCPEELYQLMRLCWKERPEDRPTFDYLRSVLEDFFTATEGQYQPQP
Chain of Abl (P00519 whole entry, species assumed): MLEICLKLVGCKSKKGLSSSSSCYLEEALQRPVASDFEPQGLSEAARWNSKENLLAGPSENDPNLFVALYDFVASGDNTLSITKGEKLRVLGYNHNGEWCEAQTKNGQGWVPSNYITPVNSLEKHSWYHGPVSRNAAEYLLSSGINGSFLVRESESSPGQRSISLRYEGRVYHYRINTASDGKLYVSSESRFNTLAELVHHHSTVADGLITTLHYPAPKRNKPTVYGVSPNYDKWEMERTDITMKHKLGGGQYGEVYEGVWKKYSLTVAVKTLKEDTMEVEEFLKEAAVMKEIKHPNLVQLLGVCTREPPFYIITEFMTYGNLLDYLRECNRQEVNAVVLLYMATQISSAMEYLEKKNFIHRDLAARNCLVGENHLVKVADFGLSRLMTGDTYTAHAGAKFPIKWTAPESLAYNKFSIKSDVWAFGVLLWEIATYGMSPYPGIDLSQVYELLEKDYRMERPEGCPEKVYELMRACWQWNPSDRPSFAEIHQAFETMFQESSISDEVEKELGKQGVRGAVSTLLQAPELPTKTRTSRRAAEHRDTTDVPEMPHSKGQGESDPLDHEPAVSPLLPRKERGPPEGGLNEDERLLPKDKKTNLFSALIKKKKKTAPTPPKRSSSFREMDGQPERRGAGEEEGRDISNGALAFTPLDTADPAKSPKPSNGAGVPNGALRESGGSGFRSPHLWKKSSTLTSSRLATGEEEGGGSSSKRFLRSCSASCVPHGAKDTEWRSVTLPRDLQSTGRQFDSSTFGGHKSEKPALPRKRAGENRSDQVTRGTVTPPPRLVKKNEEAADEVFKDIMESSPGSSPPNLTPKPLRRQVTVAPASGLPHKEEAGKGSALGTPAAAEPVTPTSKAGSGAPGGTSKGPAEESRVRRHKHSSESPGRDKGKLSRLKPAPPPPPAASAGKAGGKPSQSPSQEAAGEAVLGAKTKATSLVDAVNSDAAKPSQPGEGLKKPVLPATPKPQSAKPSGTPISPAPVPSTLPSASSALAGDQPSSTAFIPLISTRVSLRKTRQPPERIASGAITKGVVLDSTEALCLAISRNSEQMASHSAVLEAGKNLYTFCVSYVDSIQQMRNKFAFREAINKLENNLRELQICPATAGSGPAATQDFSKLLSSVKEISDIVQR
Chain of c-kit (P10721 26-976): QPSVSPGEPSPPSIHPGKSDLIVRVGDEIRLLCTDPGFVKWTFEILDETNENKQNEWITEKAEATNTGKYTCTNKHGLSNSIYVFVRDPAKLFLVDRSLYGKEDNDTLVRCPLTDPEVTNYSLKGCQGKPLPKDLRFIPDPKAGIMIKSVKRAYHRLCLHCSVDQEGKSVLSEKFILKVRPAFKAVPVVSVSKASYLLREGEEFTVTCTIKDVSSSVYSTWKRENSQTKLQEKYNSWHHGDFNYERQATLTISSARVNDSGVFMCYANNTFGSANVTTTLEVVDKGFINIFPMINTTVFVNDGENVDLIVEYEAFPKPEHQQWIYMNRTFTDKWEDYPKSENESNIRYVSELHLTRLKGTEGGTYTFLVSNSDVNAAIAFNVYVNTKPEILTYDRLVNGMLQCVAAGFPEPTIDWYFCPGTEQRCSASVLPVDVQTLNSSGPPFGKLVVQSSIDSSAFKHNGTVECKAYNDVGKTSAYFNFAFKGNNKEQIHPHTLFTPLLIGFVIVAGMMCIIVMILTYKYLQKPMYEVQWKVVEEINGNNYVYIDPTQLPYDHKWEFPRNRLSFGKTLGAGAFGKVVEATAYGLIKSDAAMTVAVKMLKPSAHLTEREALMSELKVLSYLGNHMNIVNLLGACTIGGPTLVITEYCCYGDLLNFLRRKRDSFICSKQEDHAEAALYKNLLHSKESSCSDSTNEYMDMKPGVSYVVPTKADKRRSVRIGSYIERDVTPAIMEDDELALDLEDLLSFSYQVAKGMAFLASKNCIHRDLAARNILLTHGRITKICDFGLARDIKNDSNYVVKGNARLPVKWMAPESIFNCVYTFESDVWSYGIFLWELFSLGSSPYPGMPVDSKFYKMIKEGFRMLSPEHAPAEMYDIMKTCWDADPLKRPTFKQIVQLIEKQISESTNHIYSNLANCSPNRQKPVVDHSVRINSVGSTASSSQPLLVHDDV
Chain of cRaf (P04049 whole entry, species assumed): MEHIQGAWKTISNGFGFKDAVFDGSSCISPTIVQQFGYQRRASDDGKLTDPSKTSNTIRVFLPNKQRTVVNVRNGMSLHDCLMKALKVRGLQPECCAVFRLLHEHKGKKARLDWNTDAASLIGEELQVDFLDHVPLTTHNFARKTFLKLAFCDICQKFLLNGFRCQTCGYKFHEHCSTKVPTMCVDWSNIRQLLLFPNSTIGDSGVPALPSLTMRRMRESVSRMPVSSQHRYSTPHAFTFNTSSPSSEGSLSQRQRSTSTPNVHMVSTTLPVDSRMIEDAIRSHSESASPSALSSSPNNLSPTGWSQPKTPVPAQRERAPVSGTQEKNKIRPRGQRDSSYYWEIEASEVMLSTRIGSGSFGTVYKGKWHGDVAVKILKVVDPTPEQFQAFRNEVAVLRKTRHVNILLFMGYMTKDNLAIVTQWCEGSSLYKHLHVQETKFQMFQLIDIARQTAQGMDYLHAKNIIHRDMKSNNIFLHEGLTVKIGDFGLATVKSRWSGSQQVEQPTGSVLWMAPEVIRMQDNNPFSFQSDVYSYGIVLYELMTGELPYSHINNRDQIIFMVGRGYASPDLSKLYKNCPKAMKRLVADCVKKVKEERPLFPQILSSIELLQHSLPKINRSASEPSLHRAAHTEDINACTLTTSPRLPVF
Chain of EGFR (P00533 25-1210, species assumed): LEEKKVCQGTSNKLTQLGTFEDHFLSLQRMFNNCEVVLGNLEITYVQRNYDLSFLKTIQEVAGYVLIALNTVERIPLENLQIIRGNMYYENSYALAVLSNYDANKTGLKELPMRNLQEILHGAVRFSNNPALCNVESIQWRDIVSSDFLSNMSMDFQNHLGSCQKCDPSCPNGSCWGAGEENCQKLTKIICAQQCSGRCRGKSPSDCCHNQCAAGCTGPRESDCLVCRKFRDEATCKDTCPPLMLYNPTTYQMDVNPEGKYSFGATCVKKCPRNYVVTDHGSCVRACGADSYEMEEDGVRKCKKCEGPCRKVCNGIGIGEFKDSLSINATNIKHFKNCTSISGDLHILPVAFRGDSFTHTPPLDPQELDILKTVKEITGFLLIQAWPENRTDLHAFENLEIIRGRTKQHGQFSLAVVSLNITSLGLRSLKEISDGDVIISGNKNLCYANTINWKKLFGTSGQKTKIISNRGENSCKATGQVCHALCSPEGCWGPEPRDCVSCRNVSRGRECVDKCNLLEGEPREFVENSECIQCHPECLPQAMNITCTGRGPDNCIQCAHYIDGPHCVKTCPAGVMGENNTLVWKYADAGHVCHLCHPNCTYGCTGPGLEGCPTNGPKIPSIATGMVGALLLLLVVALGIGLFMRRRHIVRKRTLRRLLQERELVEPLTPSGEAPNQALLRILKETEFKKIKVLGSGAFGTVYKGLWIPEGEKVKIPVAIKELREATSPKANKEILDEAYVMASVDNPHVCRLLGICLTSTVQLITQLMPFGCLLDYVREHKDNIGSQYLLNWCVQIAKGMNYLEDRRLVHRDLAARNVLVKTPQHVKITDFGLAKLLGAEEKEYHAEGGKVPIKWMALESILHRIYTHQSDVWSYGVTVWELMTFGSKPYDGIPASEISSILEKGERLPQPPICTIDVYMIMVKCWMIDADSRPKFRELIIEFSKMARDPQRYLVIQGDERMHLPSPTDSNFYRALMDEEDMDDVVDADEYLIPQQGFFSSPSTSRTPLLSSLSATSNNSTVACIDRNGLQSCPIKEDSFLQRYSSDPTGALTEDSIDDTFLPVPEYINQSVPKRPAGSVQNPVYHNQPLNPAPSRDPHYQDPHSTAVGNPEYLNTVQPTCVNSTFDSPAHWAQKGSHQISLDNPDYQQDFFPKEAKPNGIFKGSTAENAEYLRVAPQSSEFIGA

Take `Clc1cccc(Nc2cncc(-c3ccncc3)c2)c1` [Compound 166, [3,4′]Bipyridinyl-5-yl-(3-chloro-phenyl)-amine]: the “Inhibitory effect on target RIP” value in [1] is recorded as “A (A: 50-90% inhibition at 10 μM enzyme concentration)”. In assay [2] (1 h, read-out: Inhibitory effect on target RICK), the inhibition at 10 µM lay within 50 to 90%.
On to `Oc1ccc(-c2cncc(NCc3cccc(O)c3)c2)cc1` [Compound 212, 3-{[5-(4-Hydroxy-phenyl)-pyridin-3-ylamino]-methyl}-phenol], for which the “Inhibitory effect on target PDGFR” value in assay [3] is given as “A (A: 50-90% inhibition at 10 μM enzyme concentration)”. The “Inhibitory effect on target RICK” value in [2] is “C (C: IC50 measured: <1 μM)”. For the same molecule, the inhibition at 10 µM in [4] was greater than 90%; in [7] it was 50 to 90%; in assay [9], 50 to 90%; in [10], greater than 90%. In assay [5], the “Inhibitory effect on target EGFR” value is reported as “A (A: 50-90% inhibition at 10 μM enzyme concentration)”. Moreover, the “Inhibitory effect on target ROCK 2” value in assay [6] is reported as “C (C: IC50 measured: <1 μM)”. In assay [8], the “Inhibitory effect on target GSK-3beta” value is reported as “A (A: 50-90% inhibition at 10 μM enzyme concentration)”. In addition, the “Inhibitory effect on target CDK2/CyclinA” value in [11] is listed as “B (B: >90% inhibition at 10 μM enzyme concentration)”.
Regarding `CC(=O)Nc1cccc(-c2cncc(NCc3cccc(O)c3)c2)c1` [Compound 221, N-{3-[5-(3-Hydroxy-benzylamino)-pyridin-3-yl]-phenyl}-acetamide], in assay [3], the “Inhibitory effect on target PDGFR” value is “A (A: 50-90% inhibition at 10 μM enzyme concentration)”. The “Inhibitory effect on target RICK” value in assay [2] is listed as “C (C: IC50 measured: <1 μM)”. Besides, the inhibition at 10 µM in assay [4] was greater than 90%; in assay [7], 50 to 90%; in assay [9], 50 to 90%; in assay [10], greater than 90%. Moreover, the “Inhibitory effect on target EGFR” value in [5] is recorded as “A (A: 50-90% inhibition at 10 μM enzyme concentration)”. The “Inhibitory effect on target p38” value in [12] is “A (A: 50-90% inhibition at 10 μM enzyme concentration)”.

For the origin of these results see patent US20090196912A1, “Pyridinylamines” (GPC Botech AG, priority 2004, published 2009).
